Consider nine substances from US11186605B2 (KYOWA HAKKO BIO CO., LTD., priority 2016, dated 2021).

Like-named read-outs stand apart in the source and are kept apart here.

The conditions of series [1]: crystal powder, 400 taps at 1 tap/sec, 100 mL container, average of three. The procedure: Here, the “dense specific volume” refers to a value which is obtained by dividing a volume occupied by a powder by a mass when the powder is filled in a container, a certain impact is applied to the container, and then the mass of the powder is measured.
The dense specific volume can be measured, for example, using Multi Tester MT-1001T (manufactured by Seishin Enterprise Co., Ltd.) according to the accompanying manual under the following conditions based on the 17th revision, Pharmacopoeia of Japan.
[Measurement Conditions for Dense Specific Volume]
(§1) Apparatus for use: multi-tester MT-1001T type (manufactured by Seishin Enterprise Co., Ltd.)
(§2) Vibration range: 0.7 mm to 0.8 mm
Specific example of method of measuring dense specific volume: A 100 mL cylindrical container made of stainless steel equipped with an auxiliary cylinder is filled while the crystal is dropped via a 1.18 mm sieve vibrated at a range of 0.7 mm to 0.8 mm. […] The measurement is independently performed three times to determine an average value.

For series [2] the following is noted: crystal powder, 1.18 mm sieve, 100 mL container, average of three. The procedure: Here, the “loose specific volume” refers to a value which is obtained by dividing a volume occupied by a powder by a mass when the powder is filled in a container and the mass of the powder is measured.
The loose specific volume can be measured using Multi Tester MT-1001T (manufactured by Seishin Enterprise Co., Ltd.) according to the accompanying manual under the following conditions based on the 17th revision, Pharmacopoeia of Japan.
[Measurement Conditions for Loose Specific Volume]
as §1, §2
Specific example of method of measuring loose specific volume: A 100 mL cylindrical container made of stainless steel is filled while the crystal is dropped via a 1.18 mm sieve vibrated at a range of 0.7 mm to 0.8 mm. Excess powder is carefully rubbed off from the top surface of the container, and the mass of the powder is measured by subtracting the mass of an empty measurement container measured in advance. The measurement is independently performed three times to determine an average value.

The conditions of series [3]: crystal powder, after three impacts, mean of three sites. The source says: Here, the “angle of rupture” refers to an angle formed by a horizontal plane and a generating line of a cone which is formed when a certain impact is applied indirectly to a cone formed with a powder when the powder is allowed to gently fall onto the horizontal plane through a kind of a funnel.
The angle of rupture can be measured using Multi Tester MT-1001T (manufactured by Seishin Enterprise Co., Ltd.) according to the accompanying manual by the following method.
A weight attached to the bottom of a repose angle table unit (component number: MT-1028) is slowly lifted under a tapping table and allowed to fall after the measurement of the angle of repose. This operation is repeated three times. In the same manner as the method of measuring the angle of repose, angles are read at three sites, and the arithmetic mean thereof is determined to be the angle of rupture.

For series [4] the following is noted: crystal powder, mean of three sites.
Text: Here, the “angle of repose” refers to an angle formed by a horizontal plane and a generating line of a cone formed with a powder when the powder is allowed to gently fall onto the horizontal plane through a kind of a funnel.
The angle of repose can be measured using Multi Tester MT-1001T (manufactured by Seishin Enterprise Co., Ltd.) according to the accompanying manual under the following conditions.
[Measurement Conditions for Angle of Repose]
as §1, §2
Specific example of method of measuring angle of repose: The crystal is piled on an repose angle table (component number: MT-1028) while dropped via a 1.18 mm sieve vibrated at a range of 0.7 mm to 0.8 mm. The repose angle table is rotated without giving vibration, angles are read at three sites, and an arithmetic mean thereof is determined to be the angle of repose.

For the substance “cytidine diphosphate choline [Comparative Example 3]”, the Dense specific volume in series [1] was found to be 2.19 mg/L. Further, the Loose specific volume in series [2] came out at 4.19 mg/L. The Angle of rupture in series [3] was found to be 50.8 degree. The substance also returned an Angle of repose in series [4] of 57.4 degree.
On to “cytidine diphosphate choline [Example 2]”, for which, in series [1], the Dense specific volume worked out at 1.82 mg/L. In series [2], the Loose specific volume was found to be 2.55 mg/L. In series [3], this substance showed an Angle of rupture of 38.7 degree. The Angle of repose in series [4] is on record as 47.2 degree.
The corresponding values for “cytidine diphosphate choline [Example 1]” are 2.13 mg/L, 3.42 mg/L, 39.6 degree and 46.9 degree.
In turn, “cytidine diphosphate choline [Comparative Example 1]” showed a Dense specific volume in series [1] of 1.49 mg/L. Besides, the Loose specific volume in series [2] is on record as 2.33 mg/L. For the same substance, the Angle of rupture in series [3] amounted to 40.1 degree. In series [4], this substance returned an Angle of repose of 49.6 degree.
For cytidine diphosphate choline, the “concentration of the cytidine diphosphate choline in filtrate (solubility)” value (“concentration” below) by setting is: (ethanol concentration 50% by volume, 30° C.) 282000 µg/mL; (ethanol concentration 50% by volume, 35° C.) 286000 µg/mL; (ethanol concentration 50% by volume, 40° C.) 317000 µg/mL; (ethanol concentration 66% by volume, 30° C.) 27600 µg/mL; (ethanol concentration 66% by volume, 35° C.) 31600 µg/mL; (ethanol concentration 66% by volume, 40° C.) 54200 µg/mL. Also, the “concentration” value (ethanol concentration 71% by volume, 30° C.) was found to be 8490 µg/mL; the “concentration” value (ethanol concentration 71% by volume, 35° C.) stood at 9700 µg/mL; the “concentration” value (ethanol concentration 71% by volume, 40° C.) is 11100 µg/mL; the “concentration” value (ethanol concentration 75% by volume, 30° C.) amounted to 3230 µg/mL; the “concentration” value (ethanol concentration 75% by volume, 35° C.) amounted to 3650 µg/mL; the “concentration” value (ethanol concentration 75% by volume, 40° C.) came to 4040 µg/mL. The “concentration” value by setting is: (ethanol concentration 78% by volume, 30° C.) 1400 µg/mL; (ethanol concentration 78% by volume, 35° C.) 1680 µg/mL; (ethanol concentration 78% by volume, 40° C.) 1690 µg/mL; (ethanol concentration 80% by volume, 30° C.) 760 µg/mL; (ethanol concentration 80% by volume, 35° C.) 840 µg/mL; (ethanol concentration 80% by volume, 40° C.) 920 µg/mL.
In the case of “cytidine diphosphate choline [Comparative Example 4]”, in series [1], the Dense specific volume turned out to be 2.93 mg/L. This substance returned a Loose specific volume in series [2] of 5.74 mg/L. Also, the Angle of rupture in series [3] is on record as 46.4 degree. In series [4], this substance gave an Angle of repose of 48.7 degree.
The like results for “cytidine diphosphate choline [Example 4]” were, in that order, 1.55 mg/L, 2.00 mg/L, 41.6 degree and 43.4 degree.
The substance “cytidine diphosphate choline [Product of company A]” registered a Dense specific volume in series [1] of 1.67 mg/L. The Loose specific volume in series [2] is 2.81 mg/L. In series [3], this substance returned an Angle of rupture of 48.7 degree. In series [4], this substance yielded an Angle of repose of 56.6 degree.
“cytidine diphosphate choline [Example 3]” returned a Dense specific volume in series [1] of 2.19 mg/L. This substance showed a Loose specific volume in series [2] of 3.58 mg/L. In series [3], this substance yielded an Angle of rupture of 47.1 degree. Moreover, the Angle of repose in series [4] is given as 52.8 degree.
